Experimental data reported in US6355665B1, “1H-4(5)-substituted imidazole derivatives, their preparation and their use as histamine H3 receptor ligands” (James Black Foundation Limited, priority 1997, dated 2002).

Tests used:
Histamine H3 receptor [1] = target: T1, Histamine H3 receptor (Cavia porcellus, UniProt Q9JI35); assay: Histamine H3 radioligand binding assay, guinea pig cortex ([3H]-R-α-methylhistamine); parameters: The cortex was dissected, weighed and homogenised in ice-cold 20 mM Hepes-NaOH buffer; from tissue; host or cells: guinea pig cerebral cortex membranes; details: guinea pig cortex membranes; [3H]-R-α-methylhistamine 0.1 nM; typical variance ±0.12 log units; read-out: pKI (binding assay) - cortex (converted)
T1 sequence (Q9JI35 whole entry): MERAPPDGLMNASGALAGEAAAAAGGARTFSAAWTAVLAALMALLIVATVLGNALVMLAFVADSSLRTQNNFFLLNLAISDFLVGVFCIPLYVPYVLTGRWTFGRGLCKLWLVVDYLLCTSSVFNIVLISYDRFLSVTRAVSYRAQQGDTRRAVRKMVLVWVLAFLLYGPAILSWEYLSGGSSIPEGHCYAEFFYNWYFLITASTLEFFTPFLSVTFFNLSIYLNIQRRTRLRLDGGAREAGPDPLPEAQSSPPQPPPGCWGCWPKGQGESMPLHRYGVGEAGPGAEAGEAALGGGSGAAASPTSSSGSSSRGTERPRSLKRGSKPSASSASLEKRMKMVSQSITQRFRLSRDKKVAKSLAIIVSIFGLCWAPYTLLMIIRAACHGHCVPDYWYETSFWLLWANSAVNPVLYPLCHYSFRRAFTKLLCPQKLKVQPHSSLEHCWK
Description: Histamine H3 Radioligand Binding Assay—Guinea Pig Cortex
Male Dunkin Hartley guinea pigs (200-300 g) were used. The whole brain was removed and immediately placed in ice-cold 20 mM Hepes-NaOH buffer (pH7.4 at 21±3° C.). The cortex was dissected, weighed and homogenised in ice-cold 20 mM Hepes-NaOH buffer (pH7.4 at 21±3° C.) (50 ml/guinea-pig cortex) using a polytron (Kinematica AG; PT-DA 3020/2TS, 3×3 s). The homogenate was centrifuged at 100×g for 5 min and the supernatants pooled and stored at 4° C. The pellets were rehomogenised in fresh ice-cold buffer (80 ml) and recentrifuged (100×g for 5 min). The supernatants were pooled and pellets rehomogenised and recentrifuged (100×g for 5 min). All supernatants were pooled and centrifuged at 39,800×g for 12 min at 4° C. The final pellet was resuspended in 20 mM Hepes-NaOH buffer (pH7.4 at 21±3° C.) to a tissue concentration of 7.5 mg.ml^−1, using a teflon-in-glass homogeniser.
Incubation Conditions and Data Analysis
These were essentially identical to those used for the guinea pig ileum myenteric plexus assay described above, except that the final assay concentration of [^3H]-R-α-methylhistamine was 0.1 nM. Typical variance in this assay is ±0.12 log units.

Histamine H3 receptor [2] = target: T1, Histamine H3 receptor; assay: ileal longitudinal muscle, myenteric plexus functional assay (rightward shift of R-(α)-methylhistamine E/[A] curves, Schild); assay type: cell-based; parameters: the longitudinal muscle layer and adhering myenteric plexus was teased away; from tissue; host or cells: guinea pig ileal longitudinal muscle with myenteric plexus (organ bath); details: guinea pig ileum longitudinal muscle myenteric plexus, electrically stimulated; antagonism of R-(α)-methylhistamine; typical variance ±0.15 log units; read-out: pKB (functional assay) - ileum (converted)
Description: The biological activity of the compounds of the examples was measured using the ileal longitudinal muscle, myenteric plexus assay described by Paton and Aboo Zar (J. Physiol. 1968, 194, 13-33). Male Dunkin-Hartley guinea pigs (250-300 g) were employed. Briefly, a 50 cm portion of ileum proximal to the caecum was removed, after discarding the terminal 20 cm. Ileal segments (3 cm) were cleaned by passing Krebs-Henseleit buffer containing 3 μM mepyramine gently through the ileum using a Pasteur pipette (size: 13.8 cm length, 0.65 cm diameter). To avoid unnecessary damage to the tissue, Krebs-Henseleit buffer was passed through the ileal segment, while it was lying horizontally on a petri dish. Therefore, the ileum was not over-distended and the buffer flowed through with ease. Each segment was then passed over a Pasteur pipette and the longitudinal muscle layer and adhering myenteric plexus was teased away using moist cotton wool, by stroking tangentially away from the mesenteric attachment. The tissues were suspended in 20 ml organ baths containing Krebs-Henseleit buffer at 37±1° C. and gassed with 95% CO2/5% O2. The tissues were ligated to two parallel stainless steel wires, situated between two platinum electrodes (0.76 cm length, 0.06 cm diameter). All measurements were recorded isometrically (Grass FTO3 transducer). Following an initial loading tension of 1 g, the tissues were stimulated with electrical pulses at a frequency of 0.1 Hz and a pulse duration of 0.5 msec, as described by Kosterlitz & Watt (Br. J. Pharmacol. 1968, 266-276). Initially, the tissues were stimulated at supramaximal (1.3 fold times maximal) voltage for a period of 30 min and then the tissues were washed and re-stimulated. A “sighter dose” of the selective histamine H3-receptor agonist, R-(α)-methylhistamine (0.3 μM) (Arrang et al. Nature, 1987, 117-123), was administered. Upon generation of response, the “sighter dose” was removed from the tissues by “washout” (6 washes over 60 min) and during this period the electrical stimulation was switched off. The tissues were then re-stimulated and allowed to stabilise prior to the addition of drug treatments, which were allocated on a randomised block basis to the organ baths. Following the incubation period, a single cumulative E/[A] curve was obtained. The experimental E/[A] curve data was expressed as the percentage inhibition of the peak height of electrically-stimulated contraction. Antagonist affinity values were calculated from the degree of rightward shift of the R-(α)-methylhistamine E/[A] curves using Schild's methods (Arunlakshana & Schild Br. J. Pharmacol. 1959, 48-58). Typical variance in this assay is ±0.15 log units.

Histamine H3 receptor [3] = target: T1, Histamine H3 receptor; assay: Histamine H3 radioligand binding assay, guinea pig ileum ([3H]-R-α-methylhistamine); parameters: The cortex was dissected, weighed and homogenised in ice-cold 20 mM Hepes-NaOH buffer; from tissue; host or cells: guinea pig cerebral cortex membranes; details: guinea pig ileum longitudinal muscle myenteric plexus membranes; [3H]-R-α-methylhistamine 3 nM; typical variance ±0.12 log units; read-out: pKI (binding assay) - ileum (converted)
Description: Histamine H3 Radioligand Binding Assay—Guinea Pig Ileum
Male Dunkin Hartley guinea pigs (200-300 g) were used. The small intestine was rapidly removed (cut ^˜5 cm from caecum and 5 cm from stomach) and placed in ice-cold 20 mM Hepes-NaOH buffer (pH7.4 at 21±3° C.). The tissue was cut into ^˜10 cm segments, flushed through with ice-cold 20 mM Hepes-NaOH buffer and placed in a beaker containing fresh buffer at 4° C. 10 cm segments of ileum were threaded onto a glass pipette and the longitudinal muscle myenteric plexus was peeled away from the circular muscle using damp cotton-wool. Longitudinal muscle myenteric plexus was immediately placed in ice-cold Viaspan® solution (^˜100 ml for tissue from 3 guinea pigs) and placed in the refrigerator for 24 hours.
Pre-soaked tissue was weighed and minced with scissors. The tissue was then homogenised in Viaspan® using a polytron (Kinematica AG; PT-DA 3020/2TS, 3×^˜1-2 s). 50 ml of 500 mM Tris HCl (pH6.9 at 21±3° C.) was added to the tissue and the mixture centrifuged at 39,800×g for 12 min at 4° C. The supernatant was discarded and rehomogenised in 100 ml ice-cold 20 mM Hepes-NaOH buffer (pH7.4 at 21±3° C.) using a teflon-in-glass homogeniser (setting 10; 3×). The homogenate was recentrifuged at 39,800×g and the pellet resuspended in 20 mM Hepes-NaOH buffer (pH7.4 at 21±3° C.), to a tissue concentration of 50 mg.ml^−1, using a polytron (Brinkman, PT10, 3×^˜1 s).
Guinea pig ileum longitudinal muscle myenteric plexus membranes (400 μl) were incubated for 165 min at 21±3° C. in a final volume of 500 μl with 20 mM Hepes-NaOH buffer containing [^3H]-R-α-methylhistamine (50 μl; 3 nM) and competing compound. Total and non-specific binding of [^3H]-R-α-methylhistamine were defined using 50 μl of buffer and 50 μl of 10 μM thioperamide, respectively. The assay was terminated by rapid filtration through Whatman GF/B filters, presoaked (2 hr) in 0.1% polyethyleneimine, using a Brandell Cell Harvester. The filters were washed (3×3 ml) with ice-cold 50 mM Tris-HCl (pH6.9 at 21±3° C.), transferred into scintillation vials, 5 ml liquid scintillation cocktail was added and after 4 hours the bound radioactivity was determined by counting (4 min) in a Beckman liquid scintillation counter.
Data are analysed using GraphPad prism and the general equation for a competition curve with variable Hill slope (nH). [formula]
X is the log concentration of competing compound,
Y is the binding obtained at each concentration of X,
pIC50 is the […] required to compete for half of the specific binding.
The IC50 is converted to the K1 using the Cheng Prusoff equation,
IC50 is the concentration of competitor required to compete for half the specific binding,
L is the radioligand concentration used,
KD is the equilibrium dissociation constant for the radioligand determined by saturation experiments.
Typical variance in this assay is ±0.12 log units.

SMILES: O=S(=O)(CCCCc1c[nH]cn1)NCc1ccc(Cl)cc1 [Example 1, N-(4-Chlorobenzyl)-4-(1H-imidazol-4-yl)-1-butanesulfonamide]
- Ki (Histamine H3 receptor [1]): 2.63 nM
- Kb (Histamine H3 receptor [2]): 8.71 nM
- Ki (Histamine H3 receptor [3]): 8.51 nM

SMILES: O=S(=O)(/C=C/CCc1c[nH]cn1)NCc1ccc(Cl)cc1 [Example 3, (E)-N-(4-Chlorobenzyl)-4-(1H-imidazol-4-yl)-1-but-1-enesulfonamide]
- Ki (Histamine H3 receptor [1]): 2.75 nM
- Kb (Histamine H3 receptor [2]): 12.6 nM
- Ki (Histamine H3 receptor [3]): 10.2 nM

SMILES: O=S(=O)(CCCCCc1c[nH]cn1)NCc1ccc(Cl)cc1 [Example 5, N-(4-Chlorobenzyl)-5-(1H-imidazol-4-yl)-1-pentanesulfonamide]
- Ki (Histamine H3 receptor [1]): 2.63 nM
- Kb (Histamine H3 receptor [2]): 3.47 nM
- Ki (Histamine H3 receptor [3]): 1.86 nM

SMILES: O=S(=O)(CC(O)CCCc1c[nH]cn1)NCc1ccc(Cl)cc1 (centres unmarked) [Example 6, N-(4-Chlorobenzyl)-2-hydroxy-5-(1H-imidazol-4-yl)-1-pentanesulfonamide]
- Ki (Histamine H3 receptor [1]): 5.01 nM
- Kb (Histamine H3 receptor [2]): 16.2 nM
- Ki (Histamine H3 receptor [3]): 12.6 nM

SMILES: O=S(=O)(CC(O)CCCc1c[nH]cn1)NCCc1ccc(Cl)cc1 (centres unmarked) [Example 12, N-(4-Chlorophenethyl)-2-hydroxy-5-(1H-imidazol-4-yl)-1-pentanesulfonamide]
- Ki (Histamine H3 receptor [1]): 14.1 nM
- Kb (Histamine H3 receptor [2]): 49 nM
- Ki (Histamine H3 receptor [3]): 60.3 nM

SMILES: O=S(=O)(CCCCCc1c[nH]cn1)CCc1ccc(Cl)cc1 [Example 26, [5-(1H-Imidazol-4-yl)pentyl] 4-chlorophenethyl sulfone]
- Ki (Histamine H3 receptor [1]): 4.47 nM
- Kb (Histamine H3 receptor [2]): 7.76 nM
- Ki (Histamine H3 receptor [3]): 10.2 nM

SMILES: O=S(=O)(CCCCCc1c[nH]cn1)Cc1ccc(Cl)cc1 [Example 27, [5-(1H-Imidazol-4-yl)pentyl] 4-chlorobenzyl sulfone]
- Ki (Histamine H3 receptor [1]): 0.661 nM
- Kb (Histamine H3 receptor [2]): 14.1 nM
- Ki (Histamine H3 receptor [3]): 11.7 nM

SMILES: NCC(CCCc1c[nH]cn1)CS(=O)(=O)NCc1ccc(Cl)cc1 (centres unmarked) [Example 38, 2-Aminomethyl-N-(4-chlorobenzyl)-5-(1H-imidazol-4-yl)-1-pentanesulfonamide]
- Ki (Histamine H3 receptor [1]): 1.32 nM
- Kb (Histamine H3 receptor [2]): 12.3 nM

SMILES: CNC(CCCc1c[nH]cn1)CS(=O)(=O)NCc1ccc(Cl)cc1 (centres unmarked) [Example 39, N-(4-Chlorobenzyl)-2-methylamino-5-(1H-imidazol-4-yl)-1-pentanesulfonamide]
- Ki (Histamine H3 receptor [1]): 2.95 nM
- Kb (Histamine H3 receptor [2]): 24.5 nM

SMILES: O=S(=O)(/C=C/C=C/c1c[nH]cn1)NCc1ccc(Cl)cc1 [Example 41, (E,E)-N-(4-Chlorobenzyl)-4-(1H-imidazol-4-yl)-1-but-1,3-dienesulfonamide]
- Ki (Histamine H3 receptor [1]): 1580 nM
- Kb (Histamine H3 receptor [2]): 2630 nM

SMILES: O=S1(=O)C2C=CC(c3c[nH]cn3)CC2CN1Cc1ccc(Cl)cc1 (centres unmarked) [Example 42, 2-(4-Chlorohenzyl)-5-(1H-imidazol-4-yl)-2,3,3a, 4,5,7a-hexahydro-benzo[d]isothiazole 1,1-dioxide]
- Ki (Histamine H3 receptor [1]): 1230 nM
- Kb (Histamine H3 receptor [2]): 2090 nM
